Results from patent publication US20100172854A1, “ANTIBACTERIAL FORMULATIONS” (priority 2007, published 2010).
Values after ≈ are worked out from the molar mass of the structure shown.

Columns and labels:
Type in all cases: cell-based
[1] = system: S. aureus CPHL GISA HO41340156; assay: MIC assay; conditions: Staphylococcus aureus
Procedure: (§1) The staphylococci were cultured and maintained on Mueller-Hinton Medium (agar and broth) at pH 7.2; cultures were incubated aerobically at 37° C. for 19-20 hours.
(§2) This is a standard international method for quantitatively assessing the antimicrobial activity of a compound in a liquid medium. The method used a sterile 96-well microtitre plate, capable of holding about 200 μl of liquid per well. The wells contained liquid culture medium and ranges of decreasing concentrations of the relevant test compound in doubling dilutions (e.g. 1000, 500, 250, 125 . . . μg/ml, etc. down to 0.49 μg/ml). The culture media were as described above.
(§3) The wells were inoculated with a liquid suspension of freshly grown micro-organism and incubated under the conditions described above. After incubation, the microtitre plate was examined visually (with the aid of a light box) for cloudiness in each well, which would indicate microbial growth. The MIC value was recorded as the lowest concentration of test compound required to inhibit microbial growth, i.e. the lowest concentration for which the liquid in the well remained clear.
(§4) The assays included both negative (culture medium with no micro-organisms) and positive (culture medium plus diluting solvent plus micro-organism) controls.

[2] = system: S. epidermidis NCTC 11047; assay: MIC assay; conditions: Staphylococcus epidermidis, NCTC11047
Procedure: as §1, §2, §3, §4

S. aureus ATCC 12600-U = assay: MIC assay; conditions: Staphylococcus aureus, ATCC12600
Procedure: as §1, §2, §3, §4

[3] = system: Staphylococcus simulans ATCC 27848; assay: MIC assay; conditions: ATCC27848
Procedure: as §1, §2, §3, §4

S. aureus ATCC 12606 = assay: MIC assay; conditions: Staphylococcus aureus, ATCC12606
Procedure: as §1, §2, §3, §4

S. aureus CPHL EMRSA 15 = assay: MIC assay; conditions: Staphylococcus aureus
Procedure: as §1, §2, §3, §4

[4] = system: Staphylococcus cohnii ATCC 29974; assay: MIC assay; conditions: ATCC29974
Procedure: as §1, §2, §3, §4

[5] = system: Staphylococcus haemolyticus ATCC 29970; assay: MIC assay; conditions: ATCC29970
Procedure: as §1, §2, §3, §4

S. aureus CPHL EMRSA 17 = assay: MIC assay; conditions: Staphylococcus aureus
Procedure: as §1, §2, §3, §4

S. aureus ATCC 12604 = assay: MIC assay; conditions: Staphylococcus aureus, ATCC12604
Procedure: as §1, §2, §3, §4

S. aureus ATCC 12601 = assay: MIC assay; conditions: Staphylococcus aureus, ATCC12601
Procedure: as §1, §2, §3, §4

[6] = system: Staphylococcus aureus ATCC 12600; assay: MIC assay; conditions: ATCC12600
Procedure: as §1, §2, §3, §4

[7] = system: Porphyromonas gingivalis ATCC BAA-308; assay: MIC assay; conditions: ATCCBAA308
Procedure: (§5) The P. gingivalis strains were cultured and maintained on Wilkins-Chalgren Anaerobe Medium (agar and broth) at pH 7.0; all cultures were incubated anaerobically at 37° C. for 5-7 days.
as §2, §3, §4

[8] = system: Porphyromonas gingivalis ATCC 53978; assay: MIC assay; conditions: ATCC53978
Procedure: as §5, §2, §3, §4

[9] = system: Porphyromonas gingivalis NCTC 11834; assay: MIC assay; conditions: NCTC11834
Procedure: as §5, §2, §3, §4

[10] = system: Streptococcus mutans ATCC 35668; assay: MIC assay; conditions: ATCC35668
Procedure: (§6) The S. mutans strains were cultured and maintained on Wilkins-Chalgren Anaerobe Medium (agar and broth) at pH 7.0 supplemented with 1 g/L glucose; all cultures were incubated at 37° C. for 48 h in an atmosphere containing 5% CO2.
as §2, §3, §4

[11] = system: Streptococcus mutans ATCC 25175; assay: MIC assay; conditions: ATCC25175
Procedure: as §6, §2, §3, §4

[12] = system: S. saprophyticus NCTC 7292; assay: MBC assay
Procedure: as §1
(§7) This assay, normally carried out after an MIC assay, determines the minimum concentration of a compound that is lethal to the micro-organism being tested.
(§8) These samples were then individually sub-cultured on antibiotic-free agar medium, under the incubation conditions described above. Following incubation they were examined visually for microbial growth.

[13] = system: S. epidermidis NCTC 11047; assay: MBC assay
Procedure: as §1, §7, §8

[14] = system: Staphylococcus aureus ATCC 29213; assay: MBC assay; conditions: S. aureus ATCC 29213
Procedure: as §1, §7, §8

[15] = system: Staphylococcus hominis ATCC 27844; assay: MBC assay
Procedure: as §1, §7, §8

[16] = system: Staphylococcus simulans ATCC 27848; assay: MBC assay
Procedure: as §1, §7, §8

[17] = system: Staphylococcus warneri ATCC 27836; assay: MBC assay
Procedure: as §1, §7, §8

[18] = system: Staphylococcus cohnii ATCC 29974; assay: MBC assay
Procedure: as §1, §7, §8

[19] = system: Staphylococcus haemolyticus ATCC 29970; assay: MBC assay
Procedure: as §1, §7, §8

[20] = system: Staphylococcus capitis ATCC 27840; assay: MBC assay
Procedure: as §1, §7, §8

[21] = system: Staphylococcus auricularis ATCC 33753; assay: MBC assay
Procedure: as §1, §7, §8

[22] = system: Staphylococcus xylosus ATCC 29971; assay: MBC assay
Procedure: as §1, §7, §8

[23] = system: Staphylococcus aureus ATCC 12600; assay: MBC assay
Procedure: as §1, §7, §8

In the case of Cc1cc(Cc2cc(C)cc(C(C)(C)C)c2O)c(O)c(C(C)(C)C)c1 [AO 2246, 2,2′-methylene-bis(4-methyl-6-tert-butylphenol)], the MIC [1] is reported as 1.95 µg/mL (≈ 5.73 µM), the MIC [2] is reported as 3.9 µg/mL (≈ 11.5 µM) and the MIC (S. aureus ATCC 12600-U) is reported as 0.98 µg/mL (≈ 2.88 µM). The MIC [3] was 15.6 µg/mL (≈ 45.8 µM), the MIC (S. aureus ATCC 12606) was 1.95 µg/mL (≈ 5.73 µM) and the MIC (S. aureus CPHL EMRSA 15) was 1.95 µg/mL (≈ 5.73 µM). For the same molecule, the MIC [4] was 3.9 µg/mL (≈ 11.5 µM), the MIC [5] was 3.9 µg/mL (≈ 11.5 µM) and the MIC (S. aureus CPHL EMRSA 17) was 1.95 µg/mL (≈ 5.73 µM). It also gave an MIC (S. aureus ATCC 12604) of 1.95 µg/mL (≈ 5.73 µM), an MIC (S. aureus ATCC 12601) of 1.95 µg/mL (≈ 5.73 µM) and an MIC [6] of 0.98 µg/mL (≈ 2.88 µM). The MIC [7] was 3.9 µg/mL (≈ 11.5 µM), the MIC [8] was 0.98 µg/mL (≈ 2.88 µM) and the MIC [9] was 3.9 µg/mL (≈ 11.5 µM). The MIC [10] was 7.8 µg/mL (≈ 22.9 µM), the MIC [11] was 15.6 µg/mL (≈ 45.8 µM) and the “MIC/MBC Ratio” value [12] was 1. For the same molecule, the MBC ([12]; Staphylococcus saprophyticus, NCTC7292) was 3.9 µg/mL (≈ 11.5 µM), the “MIC/MBC Ratio” value [13] was 0.5 and the MBC ([13]; Staphylococcus epidermidis, NCTC11047) was 7.8 µg/mL (≈ 22.9 µM). For the same molecule, the MIC/MBC Ratio [14] was 0.5, the MBC ([14]; Staphylococcus aureus, ATCC29213) was 7.8 µg/mL (≈ 22.9 µM) and the “MIC/MBC Ratio” value [15] was 0.25. The MBC ([15]; ATCC27844) was 31.2 µg/mL (≈ 91.8 µM), the “MIC/MBC Ratio” value [16] was 0.5 and the MBC ([16]; ATCC27848) was 31.2 µg/mL (≈ 91.8 µM). The “MIC/MBC Ratio” value [17] was <0.5, the MBC ([17]; ATCC27836) was > 31.2 µg/mL and the “MIC/MBC Ratio” value [18] was 1. The MBC ([18]; ATCC29974) was 3.9 µg/mL (≈ 11.5 µM), the “MIC/MBC Ratio” value [19] was 1 and the MBC ([19]; ATCC29970) was 3.9 µg/mL (≈ 11.5 µM). For the same molecule, the “MIC/MBC Ratio” value [20] was 0.25, the MBC ([20]; ATCC27840) was 15.6 µg/mL (≈ 45.8 µM) and the “MIC/MBC Ratio” value [21] was 0.5. The MBC ([21]; ATCC33753) was 3.9 µg/mL (≈ 11.5 µM), the “MIC/MBC Ratio” value [22] was 1 and the MBC ([22]; ATCC29971) was 3.9 µg/mL (≈ 11.5 µM). The “MIC/MBC Ratio” value [23] was 0.06 and the MBC ([23]; ATCC12600) was 15.6 µg/mL (≈ 45.8 µM).
